Molecules are shown by their SMILES.

The subject of experiment [1] is Rattus norvegicus. The experiment is described as follows: Tested in vivo for its effect on changing plasma cholesterol level in rats at a dose of 30 mg/kg. The class given is functional.
The nature of experiment [2]: Inhibition of Acyl coenzyme A:cholesterol acyltransferase (ACAT). The arrangement: species or system Oryctolagus cuniculus.
Experiment [3] deals with Rattus norvegicus. The experiment is described as follows: Tested in vivo for its effect on changing plasma cholesterol level in rats at a dose of 3 mg/kg. The format is functional.

Consider `CCCCCCCCCCCCCCCCCCn1nnc(CS(=O)(=O)Nc2c(C(C)C)cccc2C(C)C)n1`, for which the “Delta TC” value in the experiment with Rattus norvegicus [1] is -31%. Inhibition in experiment [2] was half-maximal at 7600 nM (IC50).
For `CCCCCCCCCCCCn1nnc(C(C)(C)S(=O)(=O)Nc2c(C(C)C)cccc2C(C)C)n1`, the “Delta TC” value in the experiment with Rattus norvegicus [1] is recorded as -53%. The molecule also came in with an IC50 in experiment [2] of 40 nM.
Take `CCCCCCCCCCCCn1nnc(C(C)S(=O)(=O)Nc2c(C(C)C)cccc2C(C)C)n1` (stereo unspecified): the “Delta TC” value in the experiment with Rattus norvegicus [1] is -67%. The molecule also returned an IC50 in experiment [2] of 32 nM.
For `CCCCCCCCCCCCn1nnnc1CS(=O)(=O)Nc1c(C(C)C)cccc1C(C)C` the same measures were -41% and 1200 nM.
For `CCCCCCCCn1nnc(CS(=O)(=O)Nc2c(C(C)C)cccc2C(C)C)n1` the same measures were -14% and 750 nM.
In the case of `CCCCCCCCCCCCn1nnc(C(Cc2ccccc2)S(=O)(=O)Nc2c(C(C)C)cccc2C(C)C)n1` (stereo unspecified), the “Delta TC” value in the experiment with Rattus norvegicus [1] is -27%. In addition, the IC50 in experiment [2] turned out to be 57 nM.
As for `CCCCCCCCCCCCn1nnnc1CS(=O)(=O)Nc1c(OC)cc(OC)cc1OC`, the “Delta TC” value in the experiment on Rattus norvegicus [1] is recorded as -30%. The molecule further displayed an IC50 in experiment [2] of 3700 nM.
For `CCCCCCCCCCCCn1nnc(CC(=O)Nc2c(C(C)C)cccc2C(C)C)n1`, the “Delta TC” value with Rattus norvegicus [1] is on record as -64%; with Rattus norvegicus [3], -62%. In experiment [2], this molecule displayed an IC50 of 2.6 nM.
Take `CCCCCCCCCCCCCCn1nnc(CS(=O)(=O)Nc2c(C(C)C)cccc2C(C)C)n1`: in the experiment on Rattus norvegicus [1], the “Delta TC” value is reported as -42%. In addition, in experiment [2], it took 150 nM to reach half-maximal inhibition (IC50).
For `CCCCCCCCCCCCCCCCn1nnc(CS(=O)(=O)Nc2c(C(C)C)cccc2C(C)C)n1` the same measures were -20% and 600 nM.
For the molecule `CCCCCCCCCCCCn1nnc(CS(=O)(=O)Nc2c(OC)cc(OC)cc2OC)n1`, the “Delta TC” value with Rattus norvegicus [1] was -60%. In experiment [2], the IC50 turned out to be 180 nM.
Take `CCCCCCCCCCCCCCCCCC(=O)Nc1c(OC)cc(OC)cc1OC`: the “Delta TC” value is -11% with Rattus norvegicus [1] and -31% with Rattus norvegicus [3]. The same molecule displayed an IC50 in experiment [2] of 52 nM.
Turning to `CCCCCCCCCCCCn1nnc(CS(=O)(=O)Nc2c(C(C)C)cccc2C(C)C)n1`, the results for the “Delta TC” value in the experiment on Rattus norvegicus [1] and with Rattus norvegicus [3] were -67% and -59%, respectively. In experiment [2], this molecule came in with an IC50 of 22 nM.
In the case of `CCCCCCCCCCCCCCCCS(=O)(=O)Nc1c(OC)cc(OC)cc1OC`, inhibition in experiment [2] was half-maximal at 690 nM (IC50). Further, in the experiment on Rattus norvegicus [3], the “Delta TC” value is recorded as -31%.

As usually defined, the IC50 is the midpoint of a concentration-inhibition curve. Low readings indicate greater potency in that assay, high ones weaker potency in that assay.
